Molecules are shown by their SMILES. Calls of active or inactive are those of the source. How the calls were made is not given here.

The target of this assay is Phospholipase D2 (Homo sapiens) + Phospholipase D2 (Homo sapiens) (UniProt O14939+O14939). The assay can be described thus: phospholipase D2 activity inhibition in cells – cell-based, HEK293 overexpressing PLD2, Lib32, assay 1B (AID 624009). Particulars: HEK293 cells overexpressing PLD2, cellular PLD activity; stronger effect = lower value; concentration not given here.
Phospholipase D2 (Homo sapiens) + Phospholipase D2 (Homo sapiens), sequence (O14939 whole entry, looked up): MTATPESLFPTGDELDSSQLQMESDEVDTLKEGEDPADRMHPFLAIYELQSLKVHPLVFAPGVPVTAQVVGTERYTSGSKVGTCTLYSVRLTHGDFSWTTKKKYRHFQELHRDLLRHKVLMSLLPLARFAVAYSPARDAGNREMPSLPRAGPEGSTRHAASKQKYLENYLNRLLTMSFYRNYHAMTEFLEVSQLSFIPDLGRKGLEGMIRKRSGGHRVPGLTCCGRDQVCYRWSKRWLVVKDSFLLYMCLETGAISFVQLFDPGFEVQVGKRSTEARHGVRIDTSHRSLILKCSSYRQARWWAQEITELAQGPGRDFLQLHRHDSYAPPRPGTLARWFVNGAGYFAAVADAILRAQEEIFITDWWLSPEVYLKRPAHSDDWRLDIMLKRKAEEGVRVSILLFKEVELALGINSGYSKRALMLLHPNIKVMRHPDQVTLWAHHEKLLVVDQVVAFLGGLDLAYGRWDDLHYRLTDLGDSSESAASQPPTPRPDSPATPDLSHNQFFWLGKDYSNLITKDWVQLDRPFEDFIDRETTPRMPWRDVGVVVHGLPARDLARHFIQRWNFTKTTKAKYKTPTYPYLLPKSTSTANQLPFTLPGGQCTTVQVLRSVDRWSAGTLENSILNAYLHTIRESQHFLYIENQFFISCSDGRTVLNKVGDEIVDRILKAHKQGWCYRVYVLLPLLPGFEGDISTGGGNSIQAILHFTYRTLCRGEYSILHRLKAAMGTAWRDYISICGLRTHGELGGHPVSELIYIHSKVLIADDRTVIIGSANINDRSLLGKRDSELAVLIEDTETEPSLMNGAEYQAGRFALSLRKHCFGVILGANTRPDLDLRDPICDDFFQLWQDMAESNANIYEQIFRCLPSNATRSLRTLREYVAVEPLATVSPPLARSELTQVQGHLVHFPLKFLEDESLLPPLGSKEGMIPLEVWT
Phospholipase D2 (Homo sapiens) + Phospholipase D2 (Homo sapiens), sequence (O14939 whole entry, looked up): as above
In general, remaining activity refers to the signal under treatment as a percentage of the control signal. For `C[C@@H](CN1CCC2(CC1)C(=O)NCN2c1cccc(F)c1)NC(=O)c1c(F)ccc(F)c1Cl`, the remaining activity is 94.8% (inactive). As to `C[C@@H](CN1CCC2(CC1)C(=O)NCN2c1cccc(F)c1)NC(=O)c1c(F)cccc1F`, the remaining activity is 106% (inactive). With `O=C(NCCN1CCC2(CC1)C(=O)NCN2c1cccc(F)c1)c1ccccn1`, the remaining activity was 99.8% (inactive). In the case of `O=C(NCCN1CCC2(CC1)C(=O)NCN2c1cccc(F)c1)c1c(F)ccc(F)c1Cl` it was 85% (inactive); in that of `C[C@@H](CN1CCC2(CC1)C(=O)NCN2c1cccc(F)c1)NC(=O)c1cccc([N+](=O)[O-])c1`, 74.9% (inactive). Consider `O=C(NCCN1CCC2(CC1)C(=O)NCN2c1cccc(F)c1)c1ccc(F)cc1`, for which the remaining activity was 59.4%. In the case of `C[C@@H](CN1CCC2(CC1)C(=O)NCN2c1cccc(F)c1)NC(=O)c1ccc(Br)cc1` it was 26.6%. In the case of `COc1cc(C(=O)N[C@@H](C)CN2CCC3(CC2)C(=O)NCN3c2cccc(F)c2)cc(OC)c1OC`, the remaining activity is 34.8%. In the case of `O=C(c1ccc(F)cc1)N(CCN1CCC2(CC1)C(=O)NCN2c1cccc(F)c1)C(=O)c1ccc(F)cc1` it was 102% (inactive); in that of `O=C(NCCN1CCC2(CC1)C(=O)NCN2c1cccc(F)c1)c1ccc(F)cc1F`, 111% (inactive); in that of `COc1cc(C(=O)NCCN2CCC3(CC2)C(=O)NCN3c2cccc(F)c2)cc(OC)c1OC`, 46.7%. Take `O=C(NCCN1CCC2(CC1)C(=O)NCN2c1cccc(F)c1)c1ccc(Br)cc1`: the remaining activity was 39.2%.

For `O=C(NCCN1CCC2(CC1)C(=O)NCN2c1cccc(F)c1)c1cccc(C(F)(F)F)c1`, the remaining activity was 107% (inactive). In the case of `O=C(NCCN1CCC2(CC1)C(=O)NCN2c1cccc(F)c1)c1ccccc1I`, the remaining activity was 111% (inactive).

Take `C[C@@H](CN1CCC2(CC1)C(=O)NCN2c1cccc(F)c1)NC(=O)c1ccc(F)cc1`: the remaining activity is 33.3%.

As to `O=C(NCCN1CCC2(CC1)C(=O)NCN2c1cccc(F)c1)c1cccc2c1OCO2`, the remaining activity is 83.3% (inactive).

Turning to `C[C@@H](CN1CCC2(CC1)C(=O)NCN2c1cccc(F)c1)NC(=O)c1cccc2ccccc12`, the remaining activity was 81% (inactive).

Take `C[C@@H](CN1CCC2(CC1)C(=O)NCN2c1cccc(F)c1)NC(=O)c1ccc(Cl)cc1Cl`: the remaining activity is 81.5% (inactive). In the case of `C[C@@H](CN1CCC2(CC1)C(=O)NCN2c1cccc(F)c1)NC(=O)c1cccc(F)c1` it was 53.3%; in that of `C[C@@H](CN1CCC2(CC1)C(=O)NCN2c1cccc(F)c1)NC(=O)c1ccccc1I`, 79.4% (inactive).

As to `C[C@@H](CN1CCC2(CC1)C(=O)NCN2c1cccc(F)c1)NC(=O)c1ccc(F)c(F)c1`, the remaining activity was 22.8%. Consider `C[C@@H](CN1CCC2(CC1)C(=O)NCN2c1cccc(F)c1)NC(=O)c1ccc(F)cc1F`, for which the remaining activity was 48.2%. In the case of `C[C@@H](CN1CCC2(CC1)C(=O)NCN2c1cccc(F)c1)NC(=O)c1cccc(C(F)(F)F)c1` it was 68.8% (inactive); in that of `C[C@@H](CN1CCC2(CC1)C(=O)NCN2c1cccc(F)c1)NC(=O)Cc1ccc(F)cc1`, 91.1% (inactive). In the case of `O=C(NCCN1CCC2(CC1)C(=O)NCN2c1cccc(F)c1)c1cccc([N+](=O)[O-])c1` it was 71% (inactive). In the case of `O=C(NCCN1CCC2(CC1)C(=O)NCN2c1cccc(F)c1)c1ccc(Cl)cc1Cl` it was 116% (inactive); in that of `O=C(NCCN1CCC2(CC1)C(=O)NCN2c1cccc(F)c1)c1cccc2ccccc12`, 96.3% (inactive). Take `O=C(Cc1ccc(F)cc1)NCCN1CCC2(CC1)C(=O)NCN2c1cccc(F)c1`: the remaining activity is 92.5% (inactive).

The values above are taken from PubChem BioAssay AID624009 (Vanderbilt Specialized Chemistry Center, 2012).
